Laboratory results from patent US20260317313A1, “DNA Polymerase Theta Inhibitors Containing Non-Saturated 5-Membered Heterocyclic Rings and Use Thereof” (Thomas Jefferson University, priority 2022, published 2026).
pIC50: −log10 of the molar value.

Each compound was assayed against T1, recombinant human Polq polymerase domain (residues 1792-2590) (Homo sapiens, UniProt O75417) (assay: Cy5 fluorescence assay of Polq polymerase enzymatic activity). Settings: 5 nM Polq polymerase domain, 60 nM primer-template, 50 uM dNTPs, 37° C., 18 min, 2.5% DMSO, triplicate; read-out: Polq IC50.
T1 sequence (O75417 1792-2590): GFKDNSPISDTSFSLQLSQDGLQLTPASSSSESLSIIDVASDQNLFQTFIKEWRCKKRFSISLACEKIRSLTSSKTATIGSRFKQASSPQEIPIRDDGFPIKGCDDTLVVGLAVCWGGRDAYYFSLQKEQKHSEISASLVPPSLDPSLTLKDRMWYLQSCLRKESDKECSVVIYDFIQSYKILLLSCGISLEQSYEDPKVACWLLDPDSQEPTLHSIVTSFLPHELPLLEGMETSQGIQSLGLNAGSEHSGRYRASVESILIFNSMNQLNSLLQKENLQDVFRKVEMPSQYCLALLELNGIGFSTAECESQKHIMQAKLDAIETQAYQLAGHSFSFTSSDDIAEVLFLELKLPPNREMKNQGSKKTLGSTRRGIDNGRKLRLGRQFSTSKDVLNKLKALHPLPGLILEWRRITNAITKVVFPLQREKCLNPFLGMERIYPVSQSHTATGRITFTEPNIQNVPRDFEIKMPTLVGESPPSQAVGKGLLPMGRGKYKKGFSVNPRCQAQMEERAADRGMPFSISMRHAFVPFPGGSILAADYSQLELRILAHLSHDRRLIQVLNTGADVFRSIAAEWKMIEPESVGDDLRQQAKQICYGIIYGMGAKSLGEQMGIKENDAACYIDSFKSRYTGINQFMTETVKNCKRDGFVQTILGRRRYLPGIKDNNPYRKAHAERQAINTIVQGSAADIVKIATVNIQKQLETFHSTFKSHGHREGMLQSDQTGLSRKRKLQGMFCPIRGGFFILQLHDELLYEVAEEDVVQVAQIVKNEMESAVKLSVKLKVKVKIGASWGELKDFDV
Format: biochemical
Method: The following Cy5 fluorescence assay was used to measure the ability of compounds to inhibit Polq polymerase domain in vitro. The fluorescent based assay was performed as follows: 60 nM of the pre-annealed primer-template containing a 5′ Cy5 fluorophore conjugated template strand (SEQ ID NO 6: 5′-/5Cy5/ […] GGACAG-3′), a downstream complementary oligo conjugated with a 3′ Blackhole quencher (SEQ ID NO 7: 5′-CTAAGCTCACAGTG/3IAbRQSp/-3′) and a primer strand (SEQ ID NO 8: 5′-CTGTCCTGCATGATG-3′) was mixed with 50 uM 2′-deoxyribonucleoside triphosphates (dNTPs), 0.1 mg/mL Bovine serum albumin (BSA), 0.01% NP-40, 10% glycerol, 1 mM dithiothreitol (DTT), 10 mM MgCl2, 25 mM TrisHCl pH 7.8 in the presence of 2.5% DMSO with or without various concentrations (7-point dilution series) of Polq small molecule inhibitors represented by Formula I at 37° C. in a volume of 40 μL.
`CN(C(=O)Oc1c(-c2cn(C3CC(O)C3)nn2)cc(C(F)(F)F)cc1C(F)(F)F)c1ccc(F)cc1` (stereo not shown) [Example 17, 2-[1-(3-hydroxycyclobutyl)-1H-1,2,3-triazol-4-yl]-4,6-bis(trifluoromethyl)phenyl N-(4-fluorophenyl)-N-methylcarbamate] was tested, and the pIC50 was 8.82. `CC(C)(C)OC(=O)n1ccn(-c2cc(C(F)(F)F)cc(C(F)(F)F)c2OC(=O)N(CC#N)c2ccc(F)cc2)c1=O` [Example 19, tert-butyl 3-(2-{[(cyanomethyl)(4-fluorophenyl)carbamoyl]oxy}-3,5-bis(trifluoromethyl)phenyl)-2-oxo-2,3-dihydro-1H-imidazole-1-carboxylate] showed a pIC50 of 6.53. `N#CCN(C(=O)Oc1c(-n2cc[nH]c2=O)cc(C(F)(F)F)cc1C(F)(F)F)c1ccc(F)cc1` [Example 20, 2-(2-oxo-2,3-dihydro-1H-imidazol-1-yl)-4,6-bis(trifluoromethyl)phenyl N-(cyanomethyl)-N-(4-fluorophenyl)carbamate] showed a pIC50 of 6.36. With `[2H]C([2H])([2H])N(C(=O)Cc1c(-c2cnn(C(=O)OC(C)(C)C)c2)cc(C(F)(F)F)cc1C(F)(F)F)c1ccc(F)cc1` [Example 22, Tert-butyl 4-(2-{[(4-fluorophenyl)(methyl-d3)carbamoyl]methyl}-3,5-bis(trifluoromethyl)phenyl)-1H-pyrazole-1-carboxylate] the pIC50 was 7.61. `[2H]C([2H])([2H])N(C(=O)Cc1c(-c2cn[nH]c2)cc(C(F)(F)F)cc1C(F)(F)F)c1ccc(F)cc1` [Example 23, N-(4-fluorophenyl)-N-(methyl-d3)-2-[2-(1H-pyrazol-4-yl)-4,6-bis(trifluoromethyl)phenyl]acetamide] showed a pIC50 of 7.33.

Same assay, conditions: Polq IC50, 5 nM Polq polymerase domain, 60 nM primer-template, 50 uM dNTPs, 37° C., 18 min, 2.5% DMSO, triplicate
For `CN(C(=O)Oc1c(-c2cn(CCOCCOCCOCCOCC(=O)Nc3cccc4c3C(=O)N(C3CCC(=O)NC3=O)C4=O)nn2)cc(C(F)(F)F)cc1C(F)(F)F)c1ccc(F)cc1` (stereo not shown) [Example 8, 2-(1-(14-((2-(2,6-dioxopiperidin-3-yl)-1,3-dioxoisoindolin-4-yl)amino)-14-oxo-3,6,9,12-tetraoxatetradecyl)-1H-1,2,3-triazol-4-yl)-4,6-bis(trifluoromethyl)phenyl (4-fluorophenyl) (methyl)carbamate], the pIC50 was 8.38. For `[2H]C([2H])([2H])N(C(=O)Oc1c(-n2cc[nH]c2=O)cc(C(F)(F)F)cc1C(F)(F)F)c1ccc(F)c(Cl)c1F` [Example 9, 2-(2-oxo-2,3-dihydro-1H-imidazol-1-yl)-4,6-bis(trifluoromethyl)phenyl 3-chloro-2,4-difluorophenyl(methyl-d3)carbamate], the pIC50 was 8.62. `[2H]C([2H])([2H])N(C(=O)Oc1c(-n2cc[nH]c2=O)cc(C(F)(F)F)cc1C(F)(F)F)c1ccc(F)cc1` [Example 10, 2-(2-oxo-2,3-dihydro-1H-imidazol-1-yl)-4,6-bis(trifluoromethyl)phenyl 4-fluorophenyl(methyl-d3)carbamate] gave a pIC50 of 8.54. For `CN(C(=O)Oc1c(-c2cn(C3CC(O)C3)nn2)cc(C(F)(F)F)cc1C(F)(F)F)c1ccc(F)cc1` (stereo not shown) [Example 11, 2-[1-(3-hydroxycyclobutyl)-1H-1,2,3-triazol-4-yl]-4,6-bis(trifluoromethyl)phenyl N-(4-fluorophenyl)-N-methylcarbamate], the pIC50 was 8.70. Work on `CN(C(=O)Oc1c(-c2cn(CC3(O)CNC3)nn2)cc(C(F)(F)F)cc1C(F)(F)F)c1ccc(F)cc1` [Example 14, 2-{1-[(3-hydroxyazetidin-3-yl)methyl]-1H-1,2,3-triazol-4-yl}-4,6-bis(trifluoromethyl)phenyl N-(4-fluorophenyl)-N-methylcarbamate] yielded a pIC50 of 8.64. For `[2H]C([2H])([2H])N(C(=O)Oc1c(-c2cn(CC3(O)CNC3)nn2)cc(C(F)(F)F)cc1C(F)(F)F)c1ccc(F)cc1` [Example 15, 2-{1-[(3-hydroxyazetidin-3-yl)methyl]-1H-1,2,3-triazol-4-yl}-4,6-bis(trifluoromethyl)phenyl N-(4-fluorophenyl)-N-(methyl-d3)carbamate], the pIC50 was 8.72. `[2H]C([2H])([2H])N(C(=O)Oc1c(-c2cn(CC3(O)CNC3)nn2)cc(C(F)(F)F)cc1C(F)(F)F)c1ccc(F)c(Cl)c1F` [Example 16, 2-{1-[(3-hydroxyazetidin-3-yl)methyl]-1H-1,2,3-triazol-4-yl}-4,6-bis(trifluoromethyl)phenyl N-(3-chloro-2,4-difluorophenyl)-N-(methyl-d3)carbamate] gave a pIC50 of 8.82. `[2H]C([2H])([2H])N(C(=O)Oc1c(-c2nnn[nH]2)cc(C(F)(F)F)cc1C(F)(F)F)c1ccc(F)cc1` [Example 21, 2-(1H-1,2,3,4-tetrazol-5-yl)-4,6-bis(trifluoromethyl)phenyl N-(4-fluorophenyl)-N-(methyl-d3)carbamate] was tested, and the pIC50 was 8.49. `[2H]C([2H])([2H])N(C(=O)Oc1c(-c2cn(C3CS(=O)(=O)CC3O)nn2)cc(C(F)(F)F)cc1C(F)(F)F)c1ccc(F)c(Cl)c1F` (stereo not shown) [Example 24, 2-[1-(4-hydroxy-1,1-dioxo-1λ^6-thiolan-3-yl)-1H-1,2,3-triazol-4-yl]-4,6-bis(trifluoromethyl)phenyl N-(3-chloro-2,4-difluorophenyl)-N-(methyl-d3)carbamate] gave a pIC50 of 7.87. With `[2H]C([2H])([2H])N(C(=O)Oc1c(-c2cnn(CC(O)CN(C)C)c2)cc(C(F)(F)F)cc1C(F)(F)F)c1ccc(F)cc1` (stereo not shown) [Example 25, 2-{1-[3-(dimethylamino)-2-hydroxypropyl]-1H-pyrazol-4-yl}-4,6-bis(trifluoromethyl)phenyl N-(4-fluorophenyl)-N-(methyl-d3)carbamate] the pIC50 was 7.62. Compound `[2H]C([2H])([2H])N(C(=O)Oc1c(-c2cn(C3CN(S(C)(=O)=O)C3)nn2)cc(C(F)(F)F)cc1C(F)(F)F)c1ccc(F)c(Cl)c1F` [Example 28, 2-[1-(1-methanesulfonylazetidin-3-yl)-1H-1,2,3-triazol-4-yl]-4,6-bis(trifluoromethyl)phenyl N-(3-chloro-2,4-difluorophenyl)-N-(methyl-d3)carbamate] has a pIC50 of 8.49. For `[2H]C([2H])([2H])N(C(=O)Oc1c(-c2cn(CC(O)CNC)nn2)cc(C(F)(F)F)cc1C(F)(F)F)c1ccc(F)cc1` (stereo not shown) [Example 29, 2-{1-[2-hydroxy-3-(methylamino)propyl]-1H-1,2,3-triazol-4-yl}-4,6-bis(trifluoromethyl)phenyl N-(4-fluorophenyl)-N-(methyl-d3)carbamate], the pIC50 was 8.47. `[2H]C([2H])([2H])N(C(=O)Oc1c(-c2cn(CC(O)CN(C)C)nn2)cc(C(F)(F)F)cc1C(F)(F)F)c1ccc(F)cc1` (stereo not shown) [Example 30, 2-{1-[3-(dimethylamino)-2-hydroxypropyl]-1H-1,2,3-triazol-4-yl}-4,6-bis(trifluoromethyl)phenyl N-(4-fluorophenyl)-N-(methyl-d3)carbamate] showed a pIC50 of 8.80. `[2H]C([2H])([2H])N(C(=O)Oc1c(-c2nnco2)cc(C(F)(F)F)cc1C(F)(F)F)c1ccc(F)cc1` [Example 31, 2-(1,3,4-oxadiazol-2-yl)-4,6-bis(trifluoromethyl)phenyl N-(4-fluorophenyl)-N-(methyl-d3)carbamate] showed a pIC50 of 8.25. `[2H]C([2H])([2H])N(C(=O)Oc1c(-n2cncn2)cc(C(F)(F)F)cc1C(F)(F)F)c1ccc(F)cc1` [Example 32, 2-(1H-1,2,4-triazol-1-yl)-4,6-bis(trifluoromethyl)phenyl N-(4-fluorophenyl)-N-(methyl-d3)carbamate] showed a pIC50 of 7.74. With `[2H]C([2H])([2H])N(C(=O)Oc1c(-c2cn(C3CN(S(=O)(=O)CCN)C3)nn2)cc(C(F)(F)F)cc1C(F)(F)F)c1ccc(F)c(Cl)c1F` [Example 33, 2-{1-[1-(2-aminoethanesulfonyl)azetidin-3-yl]-1H-1,2,3-triazol-4-yl}-4,6-bis(trifluoromethyl)phenyl N-(3-chloro-2,4-difluorophenyl)-N-(methyl-d3)carbamate] the pIC50 was 8.54. `[2H]C([2H])([2H])N(C(=O)Oc1c(-n2cn[nH]c2=O)cc(C(F)(F)F)cc1C(F)(F)F)c1ccc(F)cc1` [Example 34, 2-(5-oxo-4,5-dihydro-1H-1,2,4-triazol-4-yl)-4,6-bis(trifluoromethyl)phenyl N-(4-fluorophenyl)-N-(methyl-d3)carbamate] was tested, and the pIC50 was 7.29.
